Assay results as given in US10065963B2 (Incyte Corporation, priority 2015, dated 2018).
pIC50: −log10 of the molar value. Counter-ions that a name gives are not always drawn. Like-named read-outs stand apart in the source and are kept apart here.

Key:
[1] = target: PI3Kγ (p110γ) Recombinant Human Protein (Homo sapiens (Human), UniProt P48736); experiment: PI3K-γ scintillation proximity assay; assay type: biochemical; conditions: 2 μM ATP, 20 μM PIP2
[2] = target: PI3Kδ (p110δ/p85α) Recombinant Human Protein (Homo sapiens (Human), UniProt O00329); experiment: PI3Kδ scintillation proximity assay; assay type: biochemical; conditions: 2 μM ATP, 20 μM PIP2
[3] = tested on: Phosphorylated Ribosomal Protein S6 (RPS6) in THP-1 cells; experiment: THP-1 RPS6 ELISA assay; assay type: cell-based, human; conditions: 10 nM MCP-1, read-out: PI3Kγ_THP1_RPS6_ELISA IC50
[4] = Homo sapiens, THP-1, THP-1 cells

Sequence of PI3Kγ (p110γ) Recombinant Human Protein (P48736 whole entry): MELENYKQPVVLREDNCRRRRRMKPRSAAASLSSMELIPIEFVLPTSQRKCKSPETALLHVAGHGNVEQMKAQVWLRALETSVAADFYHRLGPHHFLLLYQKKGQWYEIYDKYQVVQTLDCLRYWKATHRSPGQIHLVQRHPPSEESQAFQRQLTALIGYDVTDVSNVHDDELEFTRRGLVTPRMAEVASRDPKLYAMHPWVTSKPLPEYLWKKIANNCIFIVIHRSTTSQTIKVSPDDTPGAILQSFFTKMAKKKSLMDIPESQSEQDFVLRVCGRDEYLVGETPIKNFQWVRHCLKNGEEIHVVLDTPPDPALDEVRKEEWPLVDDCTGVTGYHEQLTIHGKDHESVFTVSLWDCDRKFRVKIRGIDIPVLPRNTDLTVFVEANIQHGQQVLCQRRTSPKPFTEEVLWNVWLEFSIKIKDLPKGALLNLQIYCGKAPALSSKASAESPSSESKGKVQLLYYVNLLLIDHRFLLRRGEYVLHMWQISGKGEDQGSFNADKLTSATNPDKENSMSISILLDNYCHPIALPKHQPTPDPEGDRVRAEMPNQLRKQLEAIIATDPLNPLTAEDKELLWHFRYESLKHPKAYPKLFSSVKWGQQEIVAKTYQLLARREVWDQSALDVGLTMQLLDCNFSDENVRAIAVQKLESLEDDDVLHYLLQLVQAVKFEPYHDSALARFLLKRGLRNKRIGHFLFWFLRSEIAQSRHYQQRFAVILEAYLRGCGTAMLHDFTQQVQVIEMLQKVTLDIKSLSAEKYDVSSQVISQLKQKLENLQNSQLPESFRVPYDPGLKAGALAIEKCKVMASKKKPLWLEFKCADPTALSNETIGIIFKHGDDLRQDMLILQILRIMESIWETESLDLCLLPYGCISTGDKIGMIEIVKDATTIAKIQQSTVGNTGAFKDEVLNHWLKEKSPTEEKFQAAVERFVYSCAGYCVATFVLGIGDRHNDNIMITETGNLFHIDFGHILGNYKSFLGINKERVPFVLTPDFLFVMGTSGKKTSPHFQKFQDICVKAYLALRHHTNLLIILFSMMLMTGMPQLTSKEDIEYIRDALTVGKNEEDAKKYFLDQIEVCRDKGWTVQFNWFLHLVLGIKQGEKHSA
Sequence of PI3Kδ (p110δ/p85α) Recombinant Human Protein (O00329 whole entry): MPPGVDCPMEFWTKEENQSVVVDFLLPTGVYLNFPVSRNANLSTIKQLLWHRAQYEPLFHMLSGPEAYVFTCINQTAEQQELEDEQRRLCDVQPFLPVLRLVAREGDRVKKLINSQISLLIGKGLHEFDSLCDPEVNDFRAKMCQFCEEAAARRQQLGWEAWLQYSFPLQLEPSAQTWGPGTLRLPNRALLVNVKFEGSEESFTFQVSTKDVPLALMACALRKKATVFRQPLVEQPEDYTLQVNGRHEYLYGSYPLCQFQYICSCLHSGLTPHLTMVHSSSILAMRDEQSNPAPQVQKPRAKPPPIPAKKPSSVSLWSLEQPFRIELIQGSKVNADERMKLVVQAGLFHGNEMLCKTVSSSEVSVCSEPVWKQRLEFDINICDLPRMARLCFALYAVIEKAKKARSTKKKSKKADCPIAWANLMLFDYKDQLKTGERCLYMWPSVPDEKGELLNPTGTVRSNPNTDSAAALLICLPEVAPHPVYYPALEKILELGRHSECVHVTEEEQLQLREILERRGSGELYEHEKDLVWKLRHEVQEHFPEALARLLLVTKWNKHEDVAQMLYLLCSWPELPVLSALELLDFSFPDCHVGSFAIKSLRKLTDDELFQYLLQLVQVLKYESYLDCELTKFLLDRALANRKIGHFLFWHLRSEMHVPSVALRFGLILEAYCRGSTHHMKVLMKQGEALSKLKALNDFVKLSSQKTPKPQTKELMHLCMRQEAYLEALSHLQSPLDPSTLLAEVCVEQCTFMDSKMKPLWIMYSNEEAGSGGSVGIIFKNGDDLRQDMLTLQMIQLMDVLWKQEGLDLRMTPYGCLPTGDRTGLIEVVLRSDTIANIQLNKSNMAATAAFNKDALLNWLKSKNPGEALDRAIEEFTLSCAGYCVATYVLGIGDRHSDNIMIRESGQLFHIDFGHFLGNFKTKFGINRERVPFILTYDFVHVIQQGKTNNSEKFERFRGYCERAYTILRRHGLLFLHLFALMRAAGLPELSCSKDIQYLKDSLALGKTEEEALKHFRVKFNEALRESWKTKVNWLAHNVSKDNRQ
Sequence of PI3Kδ (p110δ/p85α) Recombinant Human Protein (P27986 whole entry partner): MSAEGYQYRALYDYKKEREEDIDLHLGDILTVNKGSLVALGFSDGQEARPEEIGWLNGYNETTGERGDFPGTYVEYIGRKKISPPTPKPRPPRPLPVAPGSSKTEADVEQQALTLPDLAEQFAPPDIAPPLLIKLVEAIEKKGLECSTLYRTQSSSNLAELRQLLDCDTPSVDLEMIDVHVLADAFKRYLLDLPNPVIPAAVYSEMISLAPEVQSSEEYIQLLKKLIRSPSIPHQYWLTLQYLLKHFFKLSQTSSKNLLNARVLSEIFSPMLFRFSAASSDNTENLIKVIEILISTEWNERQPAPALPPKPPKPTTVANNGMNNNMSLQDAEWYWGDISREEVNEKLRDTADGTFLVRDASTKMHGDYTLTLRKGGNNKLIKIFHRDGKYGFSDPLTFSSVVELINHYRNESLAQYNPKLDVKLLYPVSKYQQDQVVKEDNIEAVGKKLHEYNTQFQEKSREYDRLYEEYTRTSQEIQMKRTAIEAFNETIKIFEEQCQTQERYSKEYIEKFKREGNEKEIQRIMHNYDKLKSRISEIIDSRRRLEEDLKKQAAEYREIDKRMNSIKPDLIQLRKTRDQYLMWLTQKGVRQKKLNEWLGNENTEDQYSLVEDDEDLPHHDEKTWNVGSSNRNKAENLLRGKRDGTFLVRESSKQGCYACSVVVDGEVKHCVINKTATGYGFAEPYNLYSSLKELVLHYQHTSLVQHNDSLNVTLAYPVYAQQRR

pIC50 [1]	pIC50 [2]	pIC50 [3, 4]	pIC50 ([3]; THP-1 cells)	Structure (SMILES)
> 7.00	> 7.00	> 6.30		COCCOc1c(C(C)NC(=O)c2c(N)nn3cccnc23)cc(Cl)c2cn[nH]c12 (stereo not drawn) [Example 81, 2-Amino-N-(1-(4-chloro-7-(2-methoxyethoxy)-1H-indazol-6-yl)ethyl)pyrazolo[1,5-a]pyrimidine-3-carboxamide trifluoroacetate]
> 7.00	> 7.00	> 6.30		COc1c(C(C)NC(=O)c2c(N)nn3cccnc23)cc(Cl)c2cn[nH]c12 (stereo not drawn) [Example 82, 2-Amino-N-(1-(4-chloro-7-methoxy-1H-indazol-6-yl)ethyl)pyrazolo[1,5-a]pyrimidine-3-carboxamide trifluoroacetate]
> 7.00	> 7.00	> 6.30		CC(NC(=O)c1c(N)nn2cccnc12)c1cc(Cl)c2cn[nH]c2c1OCC(O)CO (stereo not drawn) [Example 85, 2-Amino-N-(1-(4-chloro-7-(2,3-dihydroxypropoxy)-1H-indazol-6-yl)ethyl)pyrazolo[1,5-a]pyrimidine-3-carboxamide trifluoroacetate]
> 7.00	> 6.30	> 6.30		CC(NC(=O)c1c(N)nn2cccnc12)c1cc(Cl)c2cncn2c1N1CCC(C)(O)CC1 (stereo not drawn) [Example 87, 2-Amino-N-(1-(8-chloro-5-(4-hydroxy-4-methylpiperidin-1-yl)imidazo[1,5-a]pyridin-6-yl)ethyl)pyrazolo[1,5-a]pyrimidine-3-carboxamide trifluoroacetate]
> 7.00	> 7.00	> 6.30		CC(NC(=O)c1c(N)nn2cccnc12)c1cc(Cl)c2cncn2c1N1CCC(C)(C#N)CC1 (stereo not drawn) [Example 88, 2-Amino-N-(1-(8-chloro-5-(4-cyano-4-methylpiperidin-1-yl)imidazo[1,5-a]pyridin-6-yl)ethyl)pyrazolo[1,5-a]pyrimidine-3-carboxamide trifluoroacetate]
> 7.00	> 6.30		> 6.30	CC(NC(=O)c1c(N)nn2cccnc12)c1cc(Cl)c2cncn2c1N1CCC(O)(C(F)(F)F)CC1 (stereo not drawn) [Example 89, 2-Amino-N-(1-(8-chloro-5-(4-hydroxy-4-(trifluoromethyl)piperidin-1-yl)imidazo[1,5-a]pyridin-6-yl)ethyl)pyrazolo[1,5-a]pyrimidine-3-carboxamide trifluroacetate]
> 7.00	> 7.00	> 6.00		COC1CCN(c2c(C(C)NC(=O)c3c(N)nn4cccnc34)cc(Cl)c3cn[nH]c23)C1 (stereo not drawn) [Example 91, 2-Amino-N-{1-[4-chloro-7-(3-methoxypyrrolidin-1-yl)-2H-indazol-6-yl]ethyl}pyrazolo[1,5-a]pyrimidine-3-carboxamide bis(trifluoroacetate)]
> 7.00	> 6.30	> 6.30		CNS(=O)(=O)C1CCN(c2c(C(C)NC(=O)c3c(N)nn4cccnc34)cc(Cl)c3cn[nH]c23)C1 (stereo not drawn) [Example 92, 2-Amino-N-[1-(4-chloro-7-{3-[(methylamino)sulfonyl)pyrrolidin-1-yl}-2H-indazol-6-yl)ethyl]pyrazolo[1,5-a]pyrimidine-3-carboxamide]
> 7.00	> 5.70	< 6.00		CC(NC(=O)c1c(N)nn2cccnc12)c1cc(Cl)c2cn[nH]c2c1N1CCC(S(=O)(=O)N(C)C)CC1 (stereo not drawn) [Example 93, 2-Amino-N-[1-(4-chloro-7-{4-[(dimethylamino)sulfonyl]piperidin-1-yl}-2H-indazol-6-yl)ethyl]pyrazolo[1,5-a]pyrimidine-3-carboxamide]

The next lines start with the compound.

Structure (SMILES)	pIC50 [1]	pIC50 [2]	pIC50 [3, 4]	pIC50 ([3]; THP-1 cells)
CC(NC(=O)c1c(N)nn2cccnc12)c1cc(Cl)c2cncn2c1N1CC[C@@H](F)C1 (stereo partly drawn) [Example 75A, 2-Amino-N-(1-{8-chloro-5-[(3R)-3-fluoropyrrolidin-1-yl]imidazo[1,5-a]pyridin-6-yl}ethyl)pyrazolo[1,5-a]pyrimidine-3-carboxamide bistrifluoroacetate]	> 7.00	> 6.30	> 6.30	
CC(NC(=O)c1c(N)nn2cccnc12)c1cc(Cl)c2cncn2c1N1CC[C@H](F)C1 (stereo partly drawn) [Example 75B, 2-Amino-N-(1-{8-chloro-5-[(3S)-3-fluoropyrrolidin-1-yl]imidazo[1,5-a]pyridin-6-yl}ethyl)pyrazolo[1,5-a]pyrimidine-3-carboxamide bistrifluoroacetate]	> 7.00	> 7.00	> 6.30	
CC(NC(=O)c1c(N)nn2cccnc12)c1cc(Cl)c2cncn2c1N1CCC2(CC1)COC(=O)N2 (stereo not drawn) [Example 79, 2-Amino-N-{1-[8-chloro-5-(2-oxo-3-oxa-1,8-diazaspiro[4.5]dec-8-yl)imidazo[1,5-a]pyridin-6-yl]ethyl}pyrazolo[1,5-a]pyrimidine-3-carboxamide trifluoroacetate]	> 7.00	> 6.30	< 6.00	
CC(NC(=O)c1c(N)nn2cccnc12)c1cc(Cl)c2cncn2c1N1CCC2(CC1)CNC(=O)O2 (stereo not drawn) [Example 80, 2-Amino-N-{1-[8-chloro-5-(2-oxo-1-oxa-3,8-diazaspiro[4.5]dec-8-yl)imidazo[1,5-a]pyridin-6-yl]ethyl}pyrazolo[1,5-a]pyrimidine-3-carboxamide trifluoroacetate]	> 7.00	> 6.30	> 6.30	
CC(NC(=O)c1c(N)nn2cccnc12)c1cc(Cl)c2cn[nH]c2c1OC(F)F (stereo not drawn) [Example 83, 2-Amino-N-(1-(4-chloro-7-(difluoromethoxy)-1H-indazol-6-yl)ethyl)pyrazolo[1,5-a]pyrimidine-3-carboxamide trifluoroacetate]	> 7.00	> 7.00	> 6.30	
CC(NC(=O)c1c(N)nn2cccnc12)c1cc(Cl)c2cn[nH]c2c1OCCO (stereo not drawn) [Example 84, 2-Amino-N-(1-(4-chloro-7-(2-hydroxyethoxy)-1H-indazol-6-yl)ethyl)pyrazolo[1,5-a]pyrimidine-3-carboxamide trifluoroacetate]	> 7.00	> 7.00	> 6.30	
CCOc1c(C(C)NC(=O)c2c(N)nn3cccnc23)cc(Cl)c2c(C#N)n[nH]c12 (stereo not drawn) [Example 86, 2-Amino-N-(1-(4-chloro-3-cyano-7-ethoxy-1H-indazol-6-yl)ethyl)pyrazolo[1,5-a]pyrimidine-3-carboxamide trifluoroacetate]	> 7.00	> 6.30	< 6.00	
CC(NC(=O)c1c(N)nn2cccnc12)c1cc(Cl)c2cn[nH]c2c1N1CCS(=O)(=O)CC1 (stereo not drawn) [Example 94, 2-Amino-N-{1-[4-chloro-7-(1,1-dioxidothiomorpholin-4-yl)-2H-indazol-6-yl]ethyl}pyrazolo[1,5-a]pyrimidine-3-carboxamide trifluoroacetate]	> 7.00	> 6.30	> 6.30	
CC(=O)N[C@H]1CCN(c2c(C(C)NC(=O)c3c(N)nn4cccnc34)cc(Cl)c3cn[nH]c23)C1 (stereo partly drawn) [Example 95, N-(1-{7-[(3S)-3-(Acetylamino)pyrrolidin-1-yl]-4-chloro-2H-indazol-6-yl}ethyl)-2-aminopyrazolo[1,5-a]pyrimidine-3-carboxamide trifluoroacetate]	> 7.00	> 7.00	> 6.00	
